Counter-ions that a name gives are not always drawn. Some results are limits rather than exact numbers.

As a reminder, the IC50 is the concentration needed to halve the response being measured.

One assay deals with Male SD rats. Description: Atrial effective refractory period (AERP) prolonging effect, atrium electrostimulation model. The assay is classed as in vivo, rat. To be noted: anesthetized male SD rats, drug 10 mg/kg/10 min, basic cycle 120 ms, three examples per group.
A further assay in a line: biochemical. Further details: species or system Influenza A Virus H1N1.
Assay [1] relates to atrial fibrillation model. The note with it: described in Patent Document 1 (JP 2012-236814 A); cited from earlier work.

The compound `CCC(CC)O[C@@H]1C=C(C(=O)c2cccs2)C[C@H](N)[C@H]1NC(C)=O` [Example 1, N-[(1R,2R,6S)-6-amino-2-(1-ethylpropoxy)-4-(thiophene-2-carbonyl)-3-cyclohexen-1-yl]acetamide] gave a ΔAERP prolongation in the assay with Male SD rats of 40.0 ms. In addition, the IC50 in the assay “biochemical” was 71.7 µM.

`CCC(CC)O[C@@H]1C=C(C(=O)c2ccc(C)o2)C[C@H](N)[C@H]1NC(C)=O` [Example 3, N-[(1R,2R,6S)-6-amino-2-(1-ethylpropoxy)-4-(5-methylfuran-2-carbonyl)-3-cyclohexen-1-yl]acetamide] gave a ΔAERP prolongation in the assay on Male SD rats of 14.5 ms.

For the compound `CCC(CC)O[C@@H]1C=C(C(=O)c2ccc(C)s2)C[C@H](N)[C@H]1NC(C)=O` [Example 4, N-[(1R,2R,6S)-6-amino-2-(1-ethylpropoxy)-4-(5-methylthiophene-2-carbonyl)-3-cyclohexen-1-yl]acetamide], the IC50 in “biochemical” was determined as 66.3 µM. With `CCC(CC)O[C@@H]1C=C(C(=O)c2ccc(F)cc2)C[C@H](N)[C@H]1NC(C)=O` [Example 5, N-[(1R,2R,6S)-6-amino-2-(1-ethylpropoxy)-4-(4-fluorobenzoyl)-3-cyclohexen-1-yl]acetamide], the ΔAERP prolongation in the assay with Male SD rats was 22.0 ms. The compound `CCC(CC)O[C@@H]1C=C(C(=O)c2ccccc2)C[C@H](N)[C@H]1NC(C)=O.Cl` [Example 6, N-[(1R,2R,6S)-6-amino-4-benzoyl-2-(1-ethylpropoxy)-3-cyclohexen-1-yl]acetamide hydrochloride] gave a ΔAERP prolongation with Male SD rats of 35.7 ms. The IC50 in “biochemical” is 86 µM.

Regarding `CCC(CC)O[C@@H]1C=C(C(=O)Cc2ccccc2)C[C@H](N)[C@H]1NC(C)=O` [Example 7, N-[(1R,2R,6S)-6-amino-2-(1-ethylpropoxy)-4-phenylacetyl-3-cyclohexen-1-yl]acetamide], the ΔAERP prolongation in the assay with Male SD rats turned out to be 22.0 ms. Still for that read-out and setting: for `CCC(CC)O[C@@H]1C=C(C(=O)C(C)(C)C)C[C@H](N)[C@H]1NC(C)=O` [Example 10, N-[(1R,2R,6S)-6-amino-4-(2,2-dimethylpropionyl)-2-(1-ethylpropoxy)-3-cyclohexen-1-yl]acetamide] the value was 16.0 ms.

The compound `CCCCC(=O)C1=C[C@@H](OC(CC)CC)[C@H](NC(C)=O)[C@@H](N)C1.Cl` [Example 12, N-[(1R,2R,6S)-6-amino-2-(1-ethylpropoxy)-4-pentanoyl-3-cyclohexen-1-yl]acetamide hydrochloride] yielded a ΔAERP prolongation in the assay on Male SD rats of 23.0 ms. Further, the IC50 in “biochemical” was determined as 47.3 µM. Compound `CCC(CC)O[C@@H]1C=C(C(=O)c2ccccc2)C[C@H](N)[C@H]1NC(=O)c1ccccc1` [Example 16, N-[(1R,2R,6S)-6-amino-4-benzoyl-2-(1-ethylpropoxy)-3-cyclohexen-1-yl]benzamide] came in with a ΔAERP prolongation in the assay on Male SD rats of 18.7 ms. Regarding `CCC(CC)O[C@@H]1C=C(C(=O)c2ccccc2)C[C@H](N)[C@H]1NC(=O)C(C)(C)C` [Example 17, N-[(1R,2R,6S)-6-amino-4-benzoyl-2-(1-ethylpropoxy)-3-cyclohexen-1-yl]-2,2-dimethylpropionamide], the ΔAERP prolongation in the assay on Male SD rats worked out at 39.3 ms. The compound also showed an IC50 in “biochemical” of over 300 µM.

As to `CCC(CC)O[C@@H]1C=C(C(=O)c2ccccc2)C[C@H](NC(C)=O)[C@H]1N` [Example 18, N-[(1S,5R,6R)-6-amino-3-benzoyl-5-(1-ethylpropoxy)-3-cyclohexen-1-yl]acetamide], in the assay with Male SD rats, the ΔAERP prolongation is given as 24.0 ms. In “biochemical”, this compound registered a half-inhibitory concentration (IC50) of over 300 µM.

The compound `CCC(CC)O[C@@H]1C=C(C(O)c2ccccc2)C[C@H](N)[C@H]1NC(C)=O` (stereo partly drawn) [Example 19, N-[(1R,2R,6S)-6-amino-2-(1-ethylpropoxy)-4-(hydroxyphenylmethyl)-3-cyclohexen-1-yl]acetamide] registered an IC50 in the assay “biochemical” of 87.3 µM.

In turn, `CCC(CC)O[C@@H]1C=C(C(=O)c2cccs2)C[C@H](NC(C)=O)[C@H]1N` [Example 21, N-[(1S,5R,6R)-6-amino-5-(1-ethylpropoxy)-3-(thiophene-2-carbonyl)-3-cyclohexen-1-yl]acetamide] had a ΔAERP prolongation in the assay on Male SD rats of 29.5 ms. In addition, in “biochemical”, the IC50 was over 300 µM. On the same counts, the results for `CCOCC1=C[C@@H](OC(CC)CC)[C@H](NC(C)=O)[C@@H](N)C1` [Example 23, N-[(1R,2R,6S)-6-amino-4-ethoxymethyl-2-(1-ethylpropoxy)-3-cyclohexen-1-yl]acetamide] are 30.0 ms and 80.1 µM.

Consider `CCC(CC)O[C@@H]1CC(C(O)c2ccccc2)C[C@H](N)[C@H]1NC(C)=O` (stereo partly drawn) [Example 24, N-[(1R,2S,6R)-2-amino-6-(1-ethylpropoxy)-4-(hydroxyphenylmethyl)cyclohexyl]acetamide], for which, in the assay with Male SD rats, the ΔAERP prolongation was 20.5 ms. Also, in the assay “biochemical”, the IC50 is over 300 µM. As for `CCC(CC)O[C@@H]1C=C(C(=O)c2cccs2)C[C@H](N)[C@H]1NC(=O)CC(C)C` [Example 25, N-[(1R,2R,6S)-6-amino-2-(1-ethylpropoxy)-4-(thiophene-2-carbonyl)-3-cyclohexen-1-yl]-3-methylbutyramide], the ΔAERP prolongation with Male SD rats came to 37.7 ms. Turning to `CCN[C@@H]1[C@@H](N)CC(C(=O)c2cccs2)=C[C@H]1OC(CC)CC` [Example 26, [(3R,4R,5S)-5-amino-4-ethylamino-3-(1-ethylpropoxy)cyclohexen-1-yl]thiophene-2-yl-methanone], the IC50 in the assay “biochemical” is over 300 µM. For `CCNC(=O)N[C@@H]1[C@@H](N)CC(C(=O)c2cccs2)=C[C@H]1OC(CC)CC` [Example 27, [(1R,2R,6S)-6-amino-2-(1-ethylpropoxy)-4-(thiophene-2-carbonyl)cyclohexen-3-yl]-3-ethylurea], the ΔAERP prolongation with Male SD rats turned out to be 56.0 ms. The compound further came in with an IC50 in “biochemical” of over 300 µM. In the case of `CCCCCCC(=O)C1=C[C@@H](OC(CC)CC)[C@H](NC(C)=O)[C@@H](N)C1` [Example 28, N-[(1R,2R,6S)-6-amino-2-(1-ethylpropoxy)-4-heptanoyl-3-cyclohexen-1-yl]acetamide], in “biochemical”, the IC50 was 24.6 µM. Same read-out and setting: for `CCC(CC)O[C@@H]1C=C(C(=O)c2ccc(OC)s2)C[C@H](N)[C@H]1NC(C)=O` [Example 30, N-[(1R,2R,6S)-6-amino-2-(1-ethylpropoxy)-4-(5-methoxythiophene-2-carbonyl)-3-cyclohexen-1-yl]acetamide hydrochloride] the value was 10.6 µM. In the case of `CCOC(=O)C1=C[C@@H](OC(CC)CC)[C@H](NC(C)=O)[C@@H](N)C1` [Oseltamivir, reference compound], the ΔAERP prolongation in the assay on Male SD rats was found to be 15.7 ms. For the same compound, the “atrial fibrillation suppression effect” value in assay [1] is on record as “has an atrial fibrillation suppression effect”.

The values are drawn from patent US9950989B2, “Cyclic hydrocarbon compound” (TOA EIYO LTD., priority 2014, dated 2018).
